According to the supplement of paper PMC10307832:

How the values were obtained:
Assay in all cases: relative viability (nuclei count vs DMSO), 5 days (fraction); higher = more cells survive
Veliparib + Navitoclax = compound: C[C@]1(c2nc3c(C(N)=O)cccc3[nH]2)CCCN1 [Veliparib] + CC1(C)CCC(c2ccc(Cl)cc2)=C(CN2CCN(c3ccc(C(=O)NS(=O)(=O)c4ccc(N[C@H](CCN5CCOCC5)CSc5ccccc5)c(S(=O)(=O)C(F)(F)F)c4)cc3)CC2)C1 [Navitoclax] (partner 0.5 µM)
How it was run: (§1)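 Lung cancer cell lines, seeded in 1536-well plates, were treated the following day by pin tool with a single drug or with five library-drug doses (not always all listed) in √10 steps on top of a fixed anchor-drug dose. Cells were fixed and nuclei stained in one step after 5 days, and nuclei were counted. Relative viability is the nuclei count for treated wells divided by that for vehicle wells, reported as medians of duplicate plates.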

[1] = compound: COC1=CC=C(C=C1)CN2C=CC3=C2C=C(C=C3)C(=O)NO + N=C(N)NC(=N)NCCc1ccccc1 [Phenformin] (partner 250 µM)
How it was run: as §1

[2] = compound: COC1=CC=C(C=C1)CN2C=CC3=C2C=C(C=C3)C(=O)NO + CC(=O)Nc1cccc(-n2c(=O)n(C3CC3)c(=O)c3c(Nc4ccc(I)cc4F)n(C)c(=O)c(C)c32)c1 [Trametinib] (partner 0.02 µM)
How it was run: as §1

[3] = compound: COC1=CC=C(C=C1)CN2C=CC3=C2C=C(C=C3)C(=O)NO + Nc1ncn([C@H]2C[C@H](O)[C@@H](CO)O2)c(=O)n1 [Decitabine] (partner 2 µM)
How it was run: as §1

Cell Line	relative viability (Veliparib + Navitoclax; first compound 0.02 µM)	relative viability (Veliparib + Navitoclax; first compound 0.06325 µM)	relative viability (Veliparib + Navitoclax; first compound 0.2 µM)	relative viability (Veliparib + Navitoclax; first compound 0.6325 µM)	relative viability (Veliparib + Navitoclax; first compound 2 µM)	relative viability ([1]; first compound 0.08 µM)	relative viability ([1]; first compound 0.253 µM)	relative viability ([1]; first compound 0.8 µM)	relative viability ([1]; first compound 2.53 µM)	relative viability ([1]; first compound 8 µM)	relative viability ([2]; first compound 0.08 µM)	relative viability ([2]; first compound 0.253 µM)	relative viability ([2]; first compound 0.8 µM)	relative viability ([2]; first compound 2.53 µM)	relative viability ([2]; first compound 8 µM)	relative viability ([3]; first compound 0.08 µM)	relative viability ([3]; first compound 0.253 µM)	relative viability ([3]; first compound 0.8 µM)	relative viability ([3]; first compound 2.53 µM)	relative viability ([3]; first compound 8 µM)
NCI-H2126	0.928	0.803	0.861	0.749	0.817	0.516	0.52	0.544	0.584	0.517	0.569	0.592	0.6	0.622	0.581	0.574	0.535	0.578	0.585	0.621
EPLC-272H	–	1.08	0.999	1.22	1.16	0.265	–	0.329	0.318	0.333	–	0.314	0.297	0.308	0.238	–	0.407	0.385	0.457	0.378
HCC-366	1.09	1.01	0.968	0.942	1.1	0.633	0.624	0.634	0.599	0.532	0.293	0.28	0.328	0.295	0.333	0.231	0.365	0.351	0.337	0.264
EKVX	0.814	0.974	0.884	0.891	0.819	0.192	0.239	0.264	0.225	0.219	–	0.28	0.345	0.366	0.305	–	0.327	0.378	0.372	0.415
NCI-H1395	–	1.05	1.01	1.11	0.899	0.37	0.463	0.469	0.407	0.413	–	1.07	1.06	0.96	0.995	–	0.701	0.758	0.842	0.618
201T	1.21	1.21	1.17	1.19	1.15	0.487	0.466	0.453	0.431	0.35	0.769	0.733	0.773	0.743	0.701	0.843	0.867	0.856	0.863	0.817
LC-2-ad	–	0.446	0.405	0.312	0.497	0.493	0.577	0.561	0.588	0.479	0.841	0.899	0.882	0.938	0.991	0.853	0.871	0.81	0.773	0.816
